{"source": "patent US12209142B2", "about": "“SARS-CoV-2 epitope-targeted peptide immunostimulants” (Institute for Systems Biology, priority 2020, dated 2025)", "key": {"[1]": {"biological_target": "T1, full-length recombinant MrkA protein (Klebsiella pneumoniae, UniProt P12267)", "T1 construct": "purchased MyBiosource MBS1248970", "T1 sequence (P12267 23-202)": "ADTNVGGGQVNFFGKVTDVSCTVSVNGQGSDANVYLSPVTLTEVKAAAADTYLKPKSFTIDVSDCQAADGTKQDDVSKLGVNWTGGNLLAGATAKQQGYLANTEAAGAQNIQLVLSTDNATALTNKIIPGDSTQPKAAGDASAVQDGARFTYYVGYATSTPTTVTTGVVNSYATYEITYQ", "test": "Sandwich ELISA of PCC binding to full-length MrkA", "conditions": "sandwich ELISA, biotinylated PCC immobilized", "method": "The screen yielded 26 hits (Table 2) that were sequenced, scaled up, and tested for binding to full-length recombinant MrkA in solution by single-point sandwich Enzyme-linked immunoassays (ELISAs) (FIG. 8). HPraGly is present before X1 in each peptide and Az4 follows X5 in each peptide.\nAn alanine scan was performed to establish which residues of cy(LLFFF) (SEQ ID NO:5) contribute most to MrkA binding. In this assay, a sandwich ELISA is used to quantify the affinity of several cy(LLFFF) (SEQ ID NO:5) analogues, in which one residue is substituted with an alanine, towards full-length MrkA protein. The ELISA results in FIG. 4 show lower signal for every alanine-substituted cy(LLFFF) (SEQ ID NO:5) analogue compared to unmodified cy(LLFFF) (SEQ ID NO:5), establishing that the native compound has the highest affinity. […] Thus, these two C-terminal phenylalanine residues (FIG. 3A, arrows in inset) play critical roles in MrkA binding, and are targets for modifications to improve binding. Another important detail of these alanine scan results is a strong dependence of MrkA binding on the residue position, independent of residue type. For example, cy(LLAFF) (SEQ ID NO:9) and cy(LLFFA) (SEQ ID NO:11) have very different binding affinities, despite having the same phenylalanine-to-alanine substitution.\nIn vitro ELISA assays. ELISA assays for MrkA-binding and epitope selectivity were performed on clear NeutrAvidin Coated High Capacity Plates (ThermoFisher, 15507). The buffer used for all washes and to dissolve all compounds was TBST+0.1% BSA (TBS+0.05% Tween 20+0.1% BSA, pH 7.3) and, unless otherwise stated, steps were conducted at room temperature. Each wash involved a brief 20 s agitation, and all conjugation, blocking, and incubation steps were performed with gentle agitation over the entire stated time period. The general procedure for an ELISA assay was: wash 3×200 μL/well, conjugate with 2 μM of biotinylated compound for 2 h at room temperature (100 μL/well), wash 3×200 μL/well, blocked overnight in 5 wt % milk at 4° C., wash […] with wash buffer, incubate with titrated compound (e.g., MrkA or epitope) for 1 h, […], incubate with primary antibody […] for 1 h (100 μL/well), wash 3×200 μL/well, incubate with 1:2,000 anti-rabbit secondary antibody-horseradish peroxidase conjugate (Cell signaling Technologies, 7074S) for 1 h, 3×200 μL/well, develop with the Microwell Peroxidase Substrate System (2-C) (SeraCare, 5120-0047) using 100 μL/well for 1-40 minutes, and quench using 1 M H2SO4 (aq.) at 100 μL/well. For MrkA binding assays, biotinylated PCCs were conjugated to the well surface, recombinant MrkA with an N-terminal 6×His-SUMO-tag (MyBiosource, MBS1248970) was titrated at the desired concentration, and the primary antibody was His-tag antibody, pAb, Rabbit (Genscript, A00174) at a 1:5,000 dilution. For epitope selectivity assays, biotinylated SynEps were conjugated, DNP-conjugated AR-PCCs were titrated at a desired concentration, and the primary antibody was anti-DNP antibody produced in Rabbit (Sigma-Aldrich, D9656) at a 1:8,000 dilution. […] For binding tests in the context of mouse sera, the “titrated compound” described in the steps above was dispersed in a solution containing the desired concentration of mouse serum."}, "[2]": {"test_system": "MrkA synthetic epitopes (SynEp 1-4)", "test": "Epitope selectivity sandwich ELISA with immobilized SynEps", "type": "binding, Klebsiella pneumoniae", "conditions": "DNP-conjugated ligand at 500 nM, anti-DNP detection", "method": "The particular epitope target to which cy(LLFFF) (SEQ ID NO:5) binds was next identified. A sandwich ELISA was performed in which the biotinylated SynEps were immobilized. The lead ligand cy(LLFFF) (SEQ ID NO:5), conjugated to a 2,4-dinitrophenyl (DNP) moiety, was titrated at a 500 nM concentration, and anti-DNP was used as a detection antibody. […] A background level for this assay was established using a biotinylated 6-mer polyethylene glycol (biotin-PEG6). […] As the native epitope for SynEp1 has a GRAVY score of 1.01, while the native versions of other SynEps range between −0.9 and −0.28, the negative ELISA signals may arise from the relatively high hydrophobicity of SynEp 1 versus others. The blocking may also result from the reactivity of the cysteine residue in SynEp 1. […] (SEQ ID NO:2) in native MrkA.\nIn vitro ELISA assays. ELISA assays for MrkA-binding and epitope selectivity were performed on clear NeutrAvidin Coated High Capacity Plates (ThermoFisher, 15507). The buffer used for all washes and to dissolve all compounds was TBST+0.1% BSA (TBS+0.05% Tween 20+0.1% BSA, pH 7.3) and, unless otherwise stated, steps were conducted at room temperature. Each wash involved a brief 20 s agitation, and all conjugation, blocking, and incubation steps were performed with gentle agitation over the entire stated time period. […]"}, "[3]": {"test_system": "Escherichia coli (E. coli) cells", "test": "Whole-cell ELISA of biotinylated PCC binding", "conditions": "biotinylated PCC at 5 μM", "description": "Whole-cell ELISAs. Detection of the binding of biotinylated PCCs to bacterial surface was performed as follows. 108 bacteria from a culture grown overnight were used for each test. Bacteria were incubated with PBS containing 1% BSA (PBS-BSA) for 1 h at 37° C., washed once with PBS, and then incubated with 5 μM of the biotinylated PCC in PBS-BSA for 1 h at 37° C. After washing thrice with PBS to remove unbound PCCs, bacteria were incubated with Streptavidin-HRP (1:1000) for 1 h at 37° C. Bacteria were washed thoroughly and the TMB reagent was added until visible coloration was observed. The reaction was quenched using 2N H2SO4 and absorbance was measured at 450 nm."}}, "note": "“Also recorded” adds a separate entry of the source. Where a SMILES comes first, the peptide text is derived from it. Bridges are numbered along the chain shown (N, C = ends). Triazole bridges read from a SMILES are 1,4-linked. [ ]: non-standard residue; d: D form. The star is where a group is joined. Biotin = O=C1N[C@H]2[C@H](CS[C@H]2CCCCC(=O)*)N1; Lys(N3) = [N-]=[N+]=NCCCC[C@H](N)C(=O)O; PEG5 = NCCOCCOCCOCCOCCOCCC(=O)O; Pra = C#CC[C@H](N)C(=O)O"}
{"smiles": "CC(C)C[C@@H]1NC(=O)[C@@H](NC(=O)CCOCCOCCOCCOCCOCCNC(=O)CCCC[C@@H]2SC[C@@H]3NC(=O)N[C@@H]32)Cc2cn(nn2)CCCC[C@@H](C(N)=O)NC(=O)[C@H](Cc2ccccc2)NC(=O)[C@H](Cc2ccccc2)NC(=O)[C@H](Cc2ccccc2)NC(=O)[C@H](CC(C)C)NC1=O", "note": "[cy(LLFFF)] ({Biotin-PEG5}-[Pra]LLFFF[Lys(N3)]-NH2; triazole 1-7; N-terminus and C-terminus assumed)", "values": [{"measurement": "EC50", "setting": "[1]", "value": 50, "unit": "nM"}, {"measurement": "binding to synthetic epitopes (SynEp selectivity)", "setting": "[2]", "value": "preferably bind synthetic epitope 2; also recorded: highest signals from SynEp 2; also recorded: selectively binds synthetic epitope 2 versus other targeted epitopes"}, {"measurement": "whole-cell ELISA signal, E. coli", "setting": "[3]", "value": "small absorbances; also recorded: only weak signals"}]}
